Results published in patent US20220267271A1, “WNT ACTIVATORS AND METHODS OF USE” (MAYO FOUNDATION FOR MEDICAL EDUCATION AND RESEARCH, priority 2019, published 2022).

Columns and labels:
[1] = test system: TCF/LEF reporter; settings: with Wnt3A; cited from earlier work
[2] = test system: tau; assay: Tau phosphorylation in N2a cells by Western blotting; type: cell-based; settings: 0.8 and 1.6 μM, 24 h
Protocol: N2a cells were treated with 1011 at the indicated concentrations for 24 h. (A) the levels of β-catenin, tau and tau phosphorylation were examined by Western blotting. (B) the intensity of the tau phosphorylation bands were quantified and normalized to the corresponding signal for total tau. The results represented in the histograms are shown as the mean±SD and are the average of 3 independent experiments. *P<0.05, **P<0.01 versus corresponding control value.
Western blotting: Cells in 6-well plates were lysed in 0.5 ml of lysis buffer (phosphate-buffered saline containing 1% Triton X-100, 1× Proteinase inhibitor cocktail Complete, and 1 mM PMSF) at 4° C. for 15 min. Equal quantities of protein were subjected to SDS-PAGE under reducing conditions. Following transfer to immobilon-P transfer membrane, successive incubations with a primary antibody, and a horseradish peroxidase-conjugated secondary antibody or IRDye® 680RD goat anti-rabbit/mouse secondary antibodies were carried out for 60-120 min at room temperature. The immunoreactive proteins were then detected using the ECL system or the Odyssey infrared imaging system (LI-COR). Films showing immunoreactive bands were scanned by Hp Scanjet 5590.

[3] = test system: Wnt/β-catenin signaling; assay: Wnt/β-catenin signaling in human iPSC-derived neurons (Western blot, qPCR); type: cell-based
Protocol: (§1) Human iPSC-derived neurons were treated with 1015 (0.4 μM) for 48 h, and the mRNA levels of axin2 (B), neuroD1 (C) and SOX2 (D) were determined by qPCR. All the values are the average of three independent experiments with the SE values indicated by error bars. * P<0.05, ** P<0.01 verse corresponding control. (E) Human iPSC-derived neurons were treated with 1015 (0.4 μM) for 48 h, and the levels of phopspho-tau (p-tau) and total tau were determined by Western blotting with specific antibodies AT8 and HT7, respectively. This experiment is a representative of two such experiments performed with similar data.
(§2) NeuroD1, a proneural basic helix-loop-helix (bHLH) transcription factor, plays a critical role in CNS development, and is important for survival of neuronal progenitor cells. There is a TCF/LEF regulatory element in the Neurod1 promoter, and NeuroD1 is a specific target of Wnt/β-catenin signaling. […] In addition, 1015 also induces neural stem cell marker SOX2 expression in human iPSC-derived neurons ([…]). Importantly, 1015 suppresses tau phosphorylation in human iPSC-derived neurons (FIG. 16 at D).

[4] = test system: tau; assay: Tau phosphorylation in human iPSC-derived neurons (Western blot AT8/HT7); type: cell-based; settings: 0.4 μM, 48 h
Protocol: as §1, §2

CC(=O)Nc1ccc(C(=O)Nc2ccccc2N)cc1 [CI-994, 4-(acetylamino)-N-(2-aminophenyl)benzamide, reference compound]
activity of the TCF/LEF reporter [1]: able to synergize with Wnt3A to activate

CC1CCCC(C)N1CCNC(=O)c1ccc(C(=O)Nc2ccccc2N)nc1 (stereo not shown) [Compound 1011]
tau phosphorylation [2]: suppressed

Nc1ccccc1NC(=O)c1ccc(C(=O)NCC2CCN2C2CCCC2)cn1 (stereo not shown) [Compound 1015]
NeuroD1 expression (mRNA) ([3]; 0.4 μM, 48 h): significantly enhances | Wnt specific target axin2 expression (mRNA) ([3]; 0.4 μM, 48 h): increases | neural stem cell marker SOX2 expression (mRNA) ([3]; 0.4 μM, 48 h): induces | Wnt co-receptor LRP6 level ([3]; 24 h): enhances | tau phosphorylation [4]: suppresses
